Consider 4 compounds from PMC9351465, “Mechanism-based heparanase inhibitors reduce cancer metastasis in vivo” (Proceedings of the National Academy of Sciences of the …, 2022).

The structures appear in SMILES notation. Values joined by “and” are separate entries in the source; they are usually repeats but may differ in a detail not shown here. Equal entries are not always repeated. “Also recorded” adds a separate entry of the source.

Assay [1] has as its target T1, HPSE (Homo sapiens, UniProt Q9Y251).
T1 sequence (Q9Y251 158-543 limits assumed): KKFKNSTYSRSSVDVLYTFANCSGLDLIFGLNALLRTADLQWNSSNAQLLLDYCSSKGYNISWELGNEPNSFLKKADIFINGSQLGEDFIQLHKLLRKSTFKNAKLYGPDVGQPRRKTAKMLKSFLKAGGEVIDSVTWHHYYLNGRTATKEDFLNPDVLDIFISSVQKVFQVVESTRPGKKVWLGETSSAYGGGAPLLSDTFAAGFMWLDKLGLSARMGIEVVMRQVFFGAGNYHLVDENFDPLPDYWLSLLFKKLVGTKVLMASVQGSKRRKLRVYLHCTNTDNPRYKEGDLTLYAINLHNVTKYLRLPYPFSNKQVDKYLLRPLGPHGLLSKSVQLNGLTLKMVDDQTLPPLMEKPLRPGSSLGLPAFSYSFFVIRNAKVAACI
T1 sequence (Q9Y251 36-109 limits assumed): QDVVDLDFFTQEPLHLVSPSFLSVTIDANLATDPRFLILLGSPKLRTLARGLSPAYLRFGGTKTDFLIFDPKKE
Briefly: colorimetric fondaparinux cleavage assay. It is filed as biochemical. As for the experimental part: We next investigated the ability of our inhibitors to abrogate HPSE processing of its native oligosaccharide substrates, using a colorimetric assay that detects cleavage of the synthetic HS pentasaccharide fondaparinux ([49]). […]
Fondaparinux cleavage was performed essentially as previously described (9). Briefly, assays were carried out in 96 well plates (Nunc) pretreated with 4% BSA in TBS-T (20 mM Tris pH 7.4, […]
100 µL reactions were set up in 40 mM NaOAc pH 5.0 buffer, containing final concentrations of 200 ng/mL HPSE, 100 µM Fondaparinux (Arixtra) and specified concentrations of inhibitors.
Reactions were incubated at 37°C for 18 h, then quenched with 100 µL 0.1 M NaOH supplemented with 1.7 mM WST-1 tetrazolium salt, and incubated at 60°C for 1 h. Absorbance at 584 nm was read using an ELISA plate reader (BIO-TEK Instruments). All reactions were carried out in technical duplicate. Data were plotted and analyzed using Sigmaplot (Systat). […]

Assay [2] has as its target T1, HPSE. Briefly: H35SPG basement membrane (ECM) digest by recombinant HPSE. The format is biochemical. The settings on record: for inhibition of recombinant HPSE-mediated H35SPG cleavage: 200 ng HPSE, pH 6.0, 37°C, 5 h. The text has this: Finally, we assessed our inhibitors against HPSE-mediated degradation of bona fide HSPGs in an ECM environment. Cultured bovine corneal endothelial cells secrete a subendothelial basement membrane material rich in proteoglycans, which can be radiolabeled by growth in the presence of ^35SO4^2− ([50]). Solubilized H^35S chains released from H^35SPGs by HPSE digestion can be resolved chromatographically, with HPSE inhibition leading to a corresponding loss of signal. […] We also tested inhibition of endogenous cellular HPSE using this assay format. […]
ECM coated 35 mm culture dishes containing 35S labelled HS were prepared as previously described (10). Briefly, bovine corneal endothelial cells were plated at an initial density of 2x10^5 cells/ml, with 4% dextran T-40 (Sigma) included in the growth medium. Na235SO4 (25 µCi/ml) was added to the incubation medium on days 2 and 5 after seeding. On day 12, subendothelial ECM is exposed by dissolving the cells with PBS containing 0.5% Triton X-100 and 20 mM NH4OH, followed by four washes with PBS.
(§1) For HS-degradation assays, ECM coated dishes were incubated with 200 ng recombinant HPSE in 1 mL reaction mixture (10 mM buffer Phosphate-Citrate pH 6.0, 50 mM NaCl, 1 mM DTT, 1 mM CaCl2) containing HPSE inhibitors or DMSO control. Plates were incubated at 37°C for 5 h, then assay medium collected and applied to a 0.9×30 cm Sepharose 6B size exclusion column. The Sepharose 6B column was eluted with PBS, and 35S radioactivity of 0.2 mL fractions quantitated using a liquid scintillation analyzer (Packard BioScience) (11). […]
Matrigel and […]
non-migrating cells in the upper side of the Boyden filter were removed by swabbing, then invading cells on the bottom side of the transwell filter imaged for analysis. […]
B16 melanoma - Twenty minutes before tumor cell inoculation, C57BL/J6 mice (n=5) were injected intraperitoneally with vehicle alone (PBS), compound 2 (300 nmol/mouse), or SST0001 (150 µg/mouse). Mice were subsequently intravenously inoculated with 1.5x105

In assay [3] the target is exo-β-glucuronidase EcGUSB (Escherichia coli, UniProt P05804). Briefly: cABPP with ABP 7, recombinant EcGUSB. The note with it: competition with ABP 7.
In assay [4] the target is T2, GUSB (Homo sapiens, UniProt P08236).
T2 sequence (P08236 23-651): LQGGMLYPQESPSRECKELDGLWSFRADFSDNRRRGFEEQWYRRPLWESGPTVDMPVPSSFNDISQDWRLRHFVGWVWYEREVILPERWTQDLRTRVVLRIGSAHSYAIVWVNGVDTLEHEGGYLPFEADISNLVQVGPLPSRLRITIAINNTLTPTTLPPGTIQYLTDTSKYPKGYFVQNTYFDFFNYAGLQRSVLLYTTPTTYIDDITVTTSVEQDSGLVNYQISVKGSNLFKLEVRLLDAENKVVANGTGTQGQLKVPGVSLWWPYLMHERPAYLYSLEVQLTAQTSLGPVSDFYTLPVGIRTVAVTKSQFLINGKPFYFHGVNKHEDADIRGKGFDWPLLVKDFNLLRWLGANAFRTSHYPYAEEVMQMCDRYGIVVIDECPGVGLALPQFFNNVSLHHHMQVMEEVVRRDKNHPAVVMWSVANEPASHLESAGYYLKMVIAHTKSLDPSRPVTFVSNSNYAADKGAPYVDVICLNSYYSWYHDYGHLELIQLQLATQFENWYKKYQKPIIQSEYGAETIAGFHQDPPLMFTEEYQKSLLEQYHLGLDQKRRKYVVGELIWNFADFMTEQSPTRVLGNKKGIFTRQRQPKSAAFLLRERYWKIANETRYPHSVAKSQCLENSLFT
As to the kind of experiment: cABPP of human platelet lysates, GUSB band. The note with it: human platelet lysates containing both HPSE and GUSB.

In assay [5] the target is T1, HPSE. Briefly: competitive activity-based protein profiling (cABPP) with ABP 7, recombinant HPSE. The note with it: recombinant HPSE 20 nM, 1 h preincubation at 37°C, then 100 nM ABP 7, pH 5.5.
The subject of assay [6] is U87 glioblastoma cells. Briefly: Matrigel invasion assay. The format is cell-based, human. The settings on record: 20 µM inhibitor, 4 h. As for the experimental part: Preliminary in cellulo evaluations of our inhibitors’ effects on cancer aggression were conducted using a Matrigel invasion assay, which measures the ability of cells to migrate through transwell inserts coated with the ECM material Matrigel. Matrigel invasion by cells requires a broad complement of proteases and glycosidases, thereby mimicking some aspects of metastasis in vivo ([51]).
as §1
Cells in the upper chamber were separated by Matrigel from a lower chamber containing 600 µL DMEM, supplemented with 10% FBS. […] 10 randomly selected microscopic fields were recorded, and cell invasion calculated using ImageJ, by quantitating the percentage of the field stained by crystal violet. […]

In assay [7] the target is T3, human platelet HPSE (Homo sapiens, UniProt Q9Y251).
T3 sequence (Q9Y251 158-543 limits assumed): T1 sequence (Q9Y251 158-543 limits assumed)
T3 sequence (Q9Y251 36-109 limits assumed): T1 sequence (Q9Y251 36-109 limits assumed)
Briefly: cABPP of human platelet lysates, HPSE band.

The subject of assay [8] is BpHep and AcGH79. It is filed as biochemical, Burkholderia pseudomallei; Acidobacterium capsulatum. The note with it: recombinant enzymes, competition with ABP 7.

Turning to `O=C(O)[C@@H]1[C@@H](O)[C@H](O)[C@@H](O)[C@@H]2O[C@@H]21` [compound 1, glucuronyl-cyclophellitol], in assay [1] (at 50 μM), the “HPSE inhibition, fondaparinux cleavage” value was “Little HPSE inhibition”. The “inhibition of recombinant HPSE-mediated H35SPG cleavage” value in assay [2] is “no HPSE inhibition was observed”. Moreover, in assay [3], the “EcGUSB inhibition (cABPP)” value was “inhibited”. Also, in assay [4], the “selectivity of GUSB inhibition in platelet lysates” value is recorded as “exclusively inhibited GUSB”. For the same compound, the “HPSE inhibition (cABPP)” value in assay [5] is “ineffective HPSE inhibitor up to 10 μM”.
Take `CC(=O)N[C@H]1[C@@H](O[C@H]2[C@H](O)[C@@H](O)[C@@H]3O[C@@H]3[C@@H]2C(=O)O)O[C@H](COS(=O)(=O)O)[C@@H](O)[C@@H]1O` [compound 3]: the IC50 in assay [1] (200 ng/mL HPSE, 100 µM fondaparinux, pH 5.0, 37°C, 18 h, n = 2, read-out: IC50, HPSE-mediated fondaparinux cleavage) is 520 nM and ~510 nM; in assay [7] (HPSE IC50, human platelet lysates, cABPP, n = 3), ~60 nM and 56 nM. Moreover, the “inhibition of recombinant HPSE-mediated H35SPG cleavage” value in assay [2] was “robust, dose-dependent inhibition”. The “level of inhibition of H35SPG cleavage relative to 4.6 μM 10” value in assay [2] (1 μM 2 or 3 compared to 4.6 μM 10) is “comparable levels of inhibition”. The “Matrigel invasion (% field stained)” value in assay [6] was “significantly reduced Matrigel invasion”. The “selectivity of HPSE inhibition in platelet lysates” value in assay [7] (human platelet lysates containing both HPSE and GUSB) is listed as “highly selective inhibition of human platelet HPSE”. In addition, the “HPSE inhibition (cABPP)” value in assay [5] is “nanomolar HPSE inhibition potencies; also recorded: greater potency than 2 and 4”.
For the compound `O=C(O)[C@@H]1[C@@H](O[C@H]2O[C@H](CO)[C@@H](O)[C@H](O)[C@H]2O)[C@H](O)[C@@H](O)[C@@H]2O[C@@H]21` [compound 4], the “HPSE inhibition (cABPP)” value in assay [5] is “nanomolar HPSE inhibition potencies”.
On to `N[C@H]1[C@@H](O[C@H]2[C@H](O)[C@@H](O)[C@@H]3O[C@@H]3[C@@H]2C(=O)O)O[C@H](CO)[C@@H](O)[C@@H]1O` [compound 5], for which, in assay [8], the “inhibition of BpHep and AcGH79 (cABPP)” value is given as “all compounds apart from 5 showing activity”. Further, the “HPSE inhibition (cABPP)” value in assay [5] is “weaker inhibition”.

A word on the IC50: it is the concentration that inhibits the measured activity by half.
